From patent publication US10487093B2, “Heterocyclic compounds, in particular 2-oxo-4,4,5,5,6,6,7,7-octahydrobenzoxazole derivatives, and their use as antibacterial compounds” (priority 2016, dated 2019)

What was measured:
[1] = system: E. coli NCTC 13476; experiment: MIC, broth microdilution (CLSI) versus planktonic bacteria; assay type: cell-based; conditions: NCTC13476; Escherichia coli NCTC 13476; 16-20 h; mode of three independent experiments; read-out: MIC, Ec NCTC 13476
[2] = system: E. coli MG1655 D87G; assay type: cell-based, Escherichia coli; conditions: compared to the isogenic parent strain E. coli MG1655; D87G mutation on DNA gyrase subunit GyrA
[3] = system: Escherichia coli ATCC 25922; experiment: MIC, broth microdilution (CLSI) versus planktonic bacteria; assay type: cell-based; conditions: ATCC25922; Escherichia coli ATCC 25922; 16-20 h; mode of three independent experiments; read-out: MIC, Ec ATCC 25922
[4] = system: Streptococcus pneumoniae ATCC 49619; experiment: as above; assay type: cell-based; conditions: ATCC49619; Streptococcus pneumoniae ATCC 49619; 16-20 h; mode of three independent experiments; read-out: MIC, Sp ATCC 49619
[5] = system: Haemophilus influenzae ATCC 49247; experiment: as above; assay type: cell-based; conditions: ATCC49247; Haemophilus influenzae ATCC 49247; 16-20 h; mode of three independent experiments; read-out: MIC, Hi ATCC 49247
[6] = system: human hepatic cell line (HepG2 ATCC HB-8065); experiment: Human cell viability assay (CellTiter-Glo); conditions: Homo sapiens, HepG2, 24 h, read-out: IC50 (μg/mL) HepG2
[7] = system: E. coli MG1655; experiment: MIC, broth microdilution (CLSI) versus planktonic bacteria; assay type: cell-based, Escherichia coli; conditions: Escherichia coli, MG1655, read-out: MIC, Ec MG1655 WT
[8] = system: Staphylococcus aureus ATCC 29213; experiment: as above; assay type: cell-based; conditions: ATCC29213; Staphylococcus aureus ATCC 29213; 16-20 h; mode of three independent experiments; read-out: MIC, Sa ATCC 29213
[9] = system: E. coli ATCC BAA-2452; experiment: as above; assay type: cell-based; conditions: Escherichia coli ATCC BAA-2452; 16-20 h; mode of three independent experiments; read-out: MIC, Ec ATCC BAA 2452
[10] = system: E. coli MG1655 S83L; assay type: cell-based, Escherichia coli; conditions: compared to the isogenic parent strain E. coli MG1655; S83L mutation on DNA gyrase subunit GyrA
[11] = system: Pseudomonas aeruginosa ATCC 27853; experiment: MIC, broth microdilution (CLSI) versus planktonic bacteria; assay type: cell-based; conditions: ATCC27853; Pseudomonas aeruginosa ATCC 27853; 16-20 h; mode of three independent experiments; read-out: MIC, Pa ATCC 27853
[12] = system: Acinetobacter baumannii NCTC 13420; experiment: as above; assay type: cell-based; conditions: NCTC13420; Acinetobacter baumannii NCTC 13420; 16-20 h; mode of three independent experiments; read-out: MIC, Ab NCTC 13420
[13] = system: Enterobacter cloacae NCTC 13406; experiment: as above; assay type: cell-based; conditions: NCTC13406; Enterobacter cloacae NCTC 13406; 16-20 h; mode of three independent experiments; read-out: MIC, Ecl NCTC 13406
[14] = system: Acinetobacter baumannii ATCC 19606; experiment: as above; assay type: cell-based; conditions: ATCC19606; Acinetobacter baumannii ATCC 19606; 16-20 h; mode of three independent experiments; read-out: MIC, Ab ATCC 19606

N#Cc1ccc2ccc(=O)n(CCN[C@H]3CC[C@H]4[C@@H](C3)OC(=O)N4c3ccc4c(n3)NC(=O)CO4)c2c1 [Compound 14, 1-(2-{[(3aS,6S,7aR)-2-oxo-3-{3-oxo-2H,3H,4H-pyrido[3,2-b][1,4]oxazin-6-yl}-octahydro-1,3-benzoxazol-6-yl]amino}ethyl)-2-oxo-1,2-dihydroquinoline-7-carbonitrile]
> 100 µg/mL: IC50 [6]
< 1 µg/mL: MIC [1] | MIC [3] | MIC [4] | MIC [5] | MIC [7] | MIC [8] | MIC [9] | MIC [11] | MIC [12] | MIC [13] | MIC [14]
2 fold: Fold increase in MIC, E. coli MG1655 D87G [2] | Fold increase in MIC, E. coli MG1655 S83L [10]

N#Cc1ccc2ccc(=O)n(CCN[C@H]3CC[C@H]4[C@@H](C3)OC(=O)N4c3ccc4c(n3)NC(=O)CO4)c2n1 [Compound 15, 8-(2-{[(3aS,6S,7aR)-2-oxo-3-{3-oxo-2H,3H,4H-pyrido[3,2-b][1,4]oxazin-6-yl}-octahydro-1,3-benzoxazol-6-yl]amino}ethyl)-7-oxo-7,8-dihydro-1,8-naphthyridine-2-carbonitrile]
1 fold: Fold increase in MIC, E. coli MG1655 D87G [2] | Fold increase in MIC, E. coli MG1655 S83L [10]
< 1 µg/mL: MIC [3] | MIC [4] | MIC [8]
10 to 100 µg/mL: IC50 [6]
1 to 10 µg/mL: MIC [1] | MIC [5] | MIC [7] | MIC [9] | MIC [11] | MIC [12] | MIC [13] | MIC [14]

COc1ccc2ncc(=O)n(CCN[C@H]3CC[C@H]4[C@@H](C3)OC(=O)N4c3ccc4c(n3)NC(=O)CO4)c2c1 [Compound 24, 1-(2-{[(3aS,6S,7aR)-2-oxo-3-{3-oxo-2H,3H,4H-pyrido[3,2-b][1,4]oxazin-6-yl}-octahydro-1,3-benzoxazol-6-yl]amino}ethyl)-7-methoxy-1,2-dihydroquinoxalin-2-one]
< 1 µg/mL: MIC [1] | MIC [3] | MIC [4] | MIC [5] | MIC [7] | MIC [8] | MIC [9] | MIC [11] | MIC [12] | MIC [13] | MIC [14]
> 100 µg/mL: IC50 [6]
2 fold: Fold increase in MIC, E. coli MG1655 D87G [2] | Fold increase in MIC, E. coli MG1655 S83L [10]

COc1cnc2ccc(=O)n(CCN[C@H]3CC[C@H]4[C@@H](C3)OC(=O)N4c3ccc4c(n3)NC(=O)CO4)c2c1 [Compound 30, 1-(2-{[(3aS,6S,7aR)-2-oxo-3-{3-oxo-2H,3H,4H-pyrido[3,2-b][1,4]oxazin-6-yl}-octahydro-1,3-benzoxazol-6-yl]amino}ethyl)-7-methoxy-1,2-dihydro-1,5-naphthyridin-2-one]
> 100 µg/mL: IC50 [6]
1 to 10 µg/mL: MIC [13] | MIC [14]
2 fold: Fold increase in MIC, E. coli MG1655 D87G [2] | Fold increase in MIC, E. coli MG1655 S83L [10]
< 1 µg/mL: MIC [1] | MIC [3] | MIC [4] | MIC [5] | MIC [7] | MIC [8] | MIC [9] | MIC [11] | MIC [12]

N#Cc1ccc2ncc(=O)n(CCN[C@H]3CC[C@H]4[C@@H](C3)OC(=O)N4c3ccc4c(n3)NC(=O)CO4)c2c1 [Compound 31, 4-(2-{[(3aS,6S,7aR)-2-oxo-3-{3-oxo-2H,3H,4H-pyrido[3,2-b][1,4]oxazin-6-yl}-octahydro-1,3-benzoxazol-6-yl]amino}ethyl)-3-oxo-3,4-dihydroquinoxaline-6-carbonitrile]
< 1 µg/mL: MIC [3] | MIC [4] | MIC [5] | MIC [7] | MIC [8] | MIC [9] | MIC [12] | MIC [13] | MIC [14]
1 to 10 µg/mL: MIC [1] | MIC [11]
2 fold: Fold increase in MIC, E. coli MG1655 D87G [2]
1 fold: Fold increase in MIC, E. coli MG1655 S83L [10]
> 100 µg/mL: IC50 [6]

COc1ccc2ncc(=O)n(CCN[C@H]3CC[C@H]4[C@@H](C3)OC(=O)N4c3ccc4c(n3)NC(=O)CO4)c2n1 [Compound 35, (3aS,6S,7aR)-6-[(2-{6-methoxy-3-oxo-3H,4H-pyrido[2,3-b]pyrazin-4-yl}ethyl)amino]-3-{3-oxo-2H,3H,4H-pyrido[3,2-b][1,4]oxazin-6-yl}-octahydro-1,3-benzoxazol-2-one]
1 fold: Fold increase in MIC, E. coli MG1655 S83L [10]
2 fold: Fold increase in MIC, E. coli MG1655 D87G [2]
< 1 µg/mL: MIC [1] | MIC [3] | MIC [4] | MIC [5] | MIC [7] | MIC [8] | MIC [9] | MIC [11] | MIC [12] | MIC [13] | MIC [14]
> 100 µg/mL: IC50 [6]

COc1ccc2ccc(=O)n(CCN[C@@H]3CC[C@@H]4[C@@H](C3)OC(=O)N4c3ncc4c(n3)NC(=O)CO4)c2n1 [Compound 44, 1-(2-{[(3aR,6R,7aR)-2-oxo-3-{7-oxo-6H,7H,8H-pyrimido[5,4-b][1,4]oxazin-2-yl}-octahydro-1,3-benzoxazol-6-yl]amino}ethyl)-7-methoxy-1,2-dihydro-1,8-naphthyridin-2-one]
> 100 µg/mL: IC50 [6]
1 to 10 µg/mL: MIC [1] | MIC [11]
< 1 µg/mL: MIC [3] | MIC [4] | MIC [5] | MIC [7] | MIC [8] | MIC [9] | MIC [12] | MIC [13] | MIC [14]
2 fold: Fold increase in MIC, E. coli MG1655 D87G [2] | Fold increase in MIC, E. coli MG1655 S83L [10]

N#Cc1cnc2ccc(=O)n(CCN[C@H]3CC[C@H]4[C@@H](C3)OC(=O)N4c3ccc4c(n3)NC(=O)CO4)c2c1 [Compound 46, 5-(2-{[(3aS,6S,7aR)-2-oxo-3-{3-oxo-2H,3H,4H-pyrido[3,2-b][1,4]oxazin-6-yl}-octahydro-1,3-benzoxazol-6-yl]amino}ethyl)-6-oxo-5,6-dihydro-1,5-naphthyridine-3-carbonitrile]
> 100 µg/mL: IC50 [6]
1 fold: Fold increase in MIC, E. coli MG1655 D87G [2]
< 1 µg/mL: MIC [3] | MIC [4] | MIC [5] | MIC [7] | MIC [8] | MIC [13]
2 fold: Fold increase in MIC, E. coli MG1655 S83L [10]
1 to 10 µg/mL: MIC [1] | MIC [9] | MIC [11] | MIC [12] | MIC [14]

CN(CCn1c(=O)ccc2ccc(C#N)cc21)[C@H]1CC[C@H]2[C@@H](C1)OC(=O)N2c1ccc2c(n1)NC(=O)CO2 [Compound 47, 1-(2-{[(3aS,6S,7aR)-2-oxo-3-{3-oxo-2H,3H,4H-pyrido[3,2-b][1,4]oxazin-6-yl}-octahydro-1,3-benzoxazol-6-yl](methyl)amino}ethyl)-2-oxo-1,2-dihydroquinoline-7-carbonitrile]
< 1 µg/mL: MIC [3] | MIC [4] | MIC [5] | MIC [7] | MIC [8] | MIC [9] | MIC [11] | MIC [12] | MIC [13] | MIC [14]
1 to 10 µg/mL: MIC [1]
1 fold: Fold increase in MIC, E. coli MG1655 D87G [2]
10 to 100 µg/mL: IC50 [6]
2 fold: Fold increase in MIC, E. coli MG1655 S83L [10]

N#Cc1ccc2ncc(=O)n(CCN[C@H]3CC[C@H]4[C@H](C3)OC(=O)N4c3ccc4c(n3)NC(=O)CO4)c2c1 [Compound 64, 4-(2-{[(3aS,6S,7aS)-2-oxo-3-{3-oxo-2H,3H,4H-pyrido[3,2-b][1,4]oxazin-6-yl}-octahydro-1,3-benzoxazol-6-yl]amino}ethyl)-3-oxo-3,4-dihydroquinoxaline-6-carbonitrile]
< 1 µg/mL: MIC [3] | MIC [4] | MIC [5] | MIC [7] | MIC [8] | MIC [9] | MIC [12] | MIC [13]
1 fold: Fold increase in MIC, E. coli MG1655 D87G [2]
1 to 10 µg/mL: MIC [1] | MIC [11] | MIC [14]
10 to 100 µg/mL: IC50 [6]
0.5 fold: Fold increase in MIC, E. coli MG1655 S83L [10]
